Reference: patent US8394952B2 (Vertex Pharmaceuticals Incorporated, priority 2006, dated 2013)

Target: Plk1 (Homo sapiens, UniProt P53350)
Experiment: biochemical

Sequence of Plk1 (P53350 20-338): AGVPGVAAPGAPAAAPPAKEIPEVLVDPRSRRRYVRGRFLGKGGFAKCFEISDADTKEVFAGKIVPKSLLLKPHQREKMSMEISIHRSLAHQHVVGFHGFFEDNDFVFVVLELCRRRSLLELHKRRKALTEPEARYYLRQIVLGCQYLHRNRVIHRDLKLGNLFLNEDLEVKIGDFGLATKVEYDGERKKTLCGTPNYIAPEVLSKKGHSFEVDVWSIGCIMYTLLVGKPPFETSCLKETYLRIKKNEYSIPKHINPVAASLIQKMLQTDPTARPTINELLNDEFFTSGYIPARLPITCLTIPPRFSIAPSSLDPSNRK

Compound | Ki [nM]
COc1cc(C(=O)NCC2CC2)ccc1Nc1ncc2c(n1)N(C1CCCC1)CC(C)(C)C(=O)N2C [Compound I-131, 4-(9-cyclopentyl-6,7,8,9-tetrahydro-5,7,7-trimethyl-6-oxo-5H-pyrimido[4,5-b][1,4]diazepin-2-ylamino)-N-(cyclopropylmethyl)-3-methoxybenzamide] | < 10
COc1cc(C(=O)NCCCN2CCN(C)CC2)ccc1Nc1ncc2c(n1)N(C1CCCC1)CC(C)(C)C(=O)N2C [Compound I-28, 4-(9-cyclopentyl-6,7,8,9-tetrahydro-5,7,7-trimethyl-6-oxo-5H-pyrimido[4,5-b][1,4]diazepin-2-ylamino)-3-methoxy-N-(3-(4-methylpiperazin-1-yl)propyl)benzamide] | < 10
COc1cc(C(=O)NC2CC(C)(C)N(C)C(C)(C)C2)ccc1Nc1ncc2c(n1)N(C1CCCC1)CC(C)(C)C(=O)N2C [Compound I-68, 4-(9-cyclopentyl-6,7,8,9-tetrahydro-5,7,7-trimethyl-6-oxo-5H-pyrimido[4,5-b][1,4]diazepin-2-ylamino)-3-methoxy-N-(1,2,2,6,6-pentamethylpiperidin-4-yl)-benzamide] | < 10
CN1C(=O)C(C)(C)CN(C2CCCC2)c2nc(Nc3ccccc3)ncc21 [Compound I-90, 9-cyclopentyl-8,9-dihydro-5,7,7-trimethyl-2-(phenylamino)-5H-pyrimido[4,5-b][1,4]diazepin-6(7H)-one] | 10 to 100
CN1C(=O)C(C)(C)CN(C2CCCC2)c2nc(Nc3ccc(-c4cc[nH]n4)cc3)ncc21 [Compound I-99, 2-(4-(1H-pyrazol-3-yl)phenylamino)-9-cyclopentyl-8,9-dihydro-5,7,7-trimethyl-5H-pyrimido[4,5-b][1,4]diazepin-6(7H)-one] | < 10
CN1C(=O)C(C)(C)CN(C2CCCC2)c2nc(Nc3ccc4[nH]c(=O)[nH]c4c3)ncc21 [Compound I-108, 2-(2,3-dihydro-2-oxo-1H-benzo[d]imidazol-6-ylamino)-9-cyclopentyl-8,9-dihydro-5,7,7-trimethyl-5H-pyrimido[4,5-b][1,4]diazepin-6(7H)-one] | < 10
CN1C(=O)C(C)(C)CN(C2CCCC2)c2nc(Nc3cccc4cn(C)nc34)ncc21 [Compound I-91, 2-(2-methyl-2H-indazol-7-ylamino)-9-cyclopentyl-8,9-dihydro-5,7,7-trimethyl-5H-pyrimido[4,5-b][1,4]diazepin-6(7H)-one] | 10 to 100
COc1cc(C(=O)NC2CCN(C(C)C)CC2)ccc1Nc1ncc2c(n1)N(C1CCCC1)CC(C)(C)C(=O)N2C [Compound I-67] | < 10
COc1cc(C(=O)NCCC(F)(F)F)ccc1Nc1ncc2c(n1)N(C1CCCC1)CC(C)(C)C(=O)N2C [Compound I-132, 4-(9-cyclopentyl-6,7,8,9-tetrahydro-5,7,7-trimethyl-6-oxo-5H-pyrimido[4,5-b][1,4]diazepin-2-ylamino)-N-(3,3,3-trifluoropropyl)-3-methoxybenzamide] | < 10
COc1cc(C(=O)NC2CCN(C)CC2)ccc1Nc1ncc2c(n1)N(C1CCCC1)C[C@H](C)C(=O)N2C [Compound I-21, 4-((S)-9-cyclopentyl-6,7,8,9-tetrahydro-5,7-dimethyl-6-oxo-5H-pyrimido[4,5-b][1,4]diazepin-2-ylamino)-3-methoxy-N-(1-methylpiperidin-4-yl)benzamide] | < 10
CC(=O)N1CCc2cc(Nc3ncc4c(n3)N(C3CCCC3)CC(C)(C)C(=O)N4C)ccc21 [Compound I-79, 2-(1-acetylindolin-5-ylamino)-9-cyclopentyl-8,9-dihydro-5,7,7-trimethyl-5H-pyrimido[4,5-b][1,4]diazepin-6(7H)-one] | 10 to 100
COc1cc(C(=O)NCCN2CCC2)ccc1Nc1ncc2c(n1)N(C1CCCC1)CC(C)(C)C(=O)N2C [Compound I-38] | < 10
COc1cc(C(=O)NCCOC(=O)N2CC[C@@H](F)C2)ccc1Nc1ncc2c(n1)N(C1CCCC1)CC(C)(C)C(=O)N2C [Compound I-39, (R)-3-Fluoro-pyrrolidine-1-carboxylic acid 2-[4-(9-cyclopentyl-5,7,7-trimethyl-6-oxo-6,7,8,9-tetrahydro-5H-pyrimido[4,5-b][1,4]diazepin-2-ylamino)-3-methoxybenzoylamino]-ethyl ester] | < 10

Other lines, results leading:

Ki [nM] | Compound
< 10 | CNC(=O)c1ccc(Nc2ncc3c(n2)N([C@H]2CCOC2)CC(C)(C)C(=O)N3C)c(OC)c1 [Compound I-180, 4-(6,7,8,9-tetrahydro-9-((S)-tetrahydrofuran-3-yl)-5,7,7-trimethyl-6-oxo-5H-pyrimido[4,5-b][1,4]diazepin-2-ylamino)-3-methoxy-N-methylbenzamide]
< 10 | CC(=O)Nc1ccc(C)c(Nc2ncc3c(n2)N(C2CCCC2)CC(C)(C)C(=O)N3C)c1 [Compound I-163, N-(3-(9-cyclopentyl-6,7,8,9-tetrahydro-5,7,7-trimethyl-6-oxo-5H-pyrimido[4,5-b][1,4]diazepin-2-ylamino)-4-methylphenyl)acetamide]
< 10 | COc1cc(C(=O)N[C@@H]2CC[C@@H](CO)C2)ccc1Nc1ncc2c(n1)N(C1CCCC1)CC(C)(C)C(=O)N2C [Compound I-260, 4-(9-cyclopentyl-5,7,7-trimethyl-6-oxo-6,7,8,9-tetrahydro-5H-pyrimido[4,5-b][1,4]diazepin-2-ylamino)-N-((1R,3R)-3-(hydroxymethyl)cyclopentyl)-3-methoxybenzamide]
10 to 100 | CN1C(=O)C(C)(C)CN(C2CCCC2)c2nc(Nc3cccc(-c4cc[nH]n4)c3)ncc21 [Compound I-137, 2-(3-(1H-pyrazol-3-yl)phenylamino)-9-cyclopentyl-8,9-dihydro-5,7,7-trimethyl-5H-pyrimido[4,5-b][1,4]diazepin-6(7H)-one]
< 10 | COc1cc(C(=O)NCCCO)ccc1Nc1ncc2c(n1)N(C1CCCC1)CC1(CC1)C(=O)N2C [Compound I-262, 4-(9′-cyclopentyl-5′-methyl-6′-oxo-5′,6′,8′,9′-tetrahydrospiro[cyclopropane-1,7′-pyrimido[4,5-b][1,4]diazepine]-2′-ylamino)-N-(3-hydroxypropyl)-3-methoxybenzamide]
< 10 | COc1cc(C(=O)NC(C)C)ccc1Nc1ncc2c(n1)N(C1CCCC1)CC1(CC1)C(=O)N2C [Compound I-263, 4-(9′-cyclopentyl-5′-methyl-6′-oxo-5′,6′,8′,9′-tetrahydrospiro[cyclopropane-1,7′-pyrimido[4,5-b][1,4]diazepine]-2′-ylamino)-N-isopropyl-3-methoxybenzamide]
< 10 | COc1cc(C(=O)N[C@@H]2C[C@H]2c2ccccc2)ccc1Nc1ncc2c(n1)N(C1CCCC1)CC(C)(C)C(=O)N2C [Compound I-225, 4-(9-cyclopentyl-5,7,7-trimethyl-6-oxo-6,7,8,9-tetrahydro-5H-pyrimido[4,5-b][1,4]diazepin-2-ylamino)-3-methoxy-N-((1R,2S)-2-phenylcyclopropyl)benzamide]
< 10 | COc1cc(C(=O)Nc2ccccc2)ccc1Nc1ncc2c(n1)N(C1CCCC1)CC(C)(C)C(=O)N2C [Compound I-200, 4-(9-cyclopentyl-5,7,7-trimethyl-6-oxo-6,7,8,9-tetrahydro-5H-pyrimido[4,5-b][1,4]diazepin-2-ylamino)-3-methoxy-N-phenylbenzamide]
< 10 | COc1cc(C(=O)NC2CCOCC2)ccc1Nc1ncc2c(n1)N(C1CCCC1)CC1(CC1)C(=O)N2C [Compound I-177, 4-(9′-cyclopentyl-5′-methyl-6′-oxo-5′,6′,8′,9′-tetrahydrospiro[cyclopropane-1,7′-pyrimido[4,5-b][1,4]diazepine]-2′-ylamino)-3-methoxy-N-(tetrahydro-2H-pyran-4-yl)benzamide]
10 to 100 | CN1C(=O)C(C)(C)CN(C2CCCC2)c2nc(Nc3ccc4c(c3)C(=O)C(=O)N4)ncc21 [Compound I-139, 5-(9-Cyclopentyl-6,7,8,9-tetrahydro-5,7,7-trimethyl-6-oxo-5H-pyrimido[4,5-b][1,4]diazepin-2-ylamino)indoline-2,3-dione]
< 10 | COc1cc(C(=O)N[C@H]2CC[C@H](O)CC2)ccc1Nc1ncc2c(n1)N(C1CCCC1)CC(C)(C)C(=O)N2C [Compound I-204, 4-(9-cyclopentyl-5,7,7-trimethyl-6-oxo-6,7,8,9-tetrahydro-5H-pyrimido[4,5-b][1,4]diazepin-2-ylamino)-N-((1R,4R)-4-hydroxycyclohexyl)-3-methoxybenzamide]
< 10 | COc1cc(C(=O)N[C@H](CO)C(C)C)ccc1Nc1ncc2c(n1)N(C1CCCC1)CC(C)(C)C(=O)N2C [Compound I-239, (S)-4-(9-cyclopentyl-5,7,7-trimethyl-6-oxo-6,7,8,9-tetrahydro-5H-pyrimido[4,5-b][1,4]diazepin-2-ylamino)-N-(1-hydroxy-3-methylbutan-2-yl)-3-methoxybenzamide]
< 10 | CN1CCC(C(=O)Nc2cccc(Nc3ncc4c(n3)N(C3CCCC3)CC(C)(C)C(=O)N4C)c2)CC1 [Compound I-157, N-(3-(9-cyclopentyl-6,7,8,9-tetrahydro-5,7,7-trimethyl-6-oxo-5H-pyrimido[4,5-b][1,4]diazepin-2-ylamino)phenyl)-1-methylpiperidine-4-carboxamide]
< 10 | COc1cc(C(=O)N[C@@H]2CCC[C@H]2O)ccc1Nc1ncc2c(n1)N(C1CCCC1)CC1(CC1)C(=O)N2C [Compound I-272, 4-(9′-cyclopentyl-5′-methyl-6′-oxo-5′,6′,8′,9′-tetrahydrospiro[cyclopropane-1,7′-pyrimido[4,5-b][1,4]diazepine]-2′-ylamino)-N-((1R,2R)-2-hydroxycyclopentyl)-3-methoxybenzamide]
< 10 | COc1cc(C(=O)NC(C)C)ccc1Nc1ncc2c(n1)N(C1CCCC1)CC(C)(C)C(=O)N2C [Compound I-238, 4-(9-cyclopentyl-5,7,7-trimethyl-6-oxo-6,7,8,9-tetrahydro-5H-pyrimido[4,5-b][1,4]diazepin-2-ylamino)-N-isopropyl-3-methoxybenzamide]
< 10 | COc1cc(C(=O)NCCO)ccc1Nc1ncc2c(n1)N(C1CCCC1)CC(C)(C)C(=O)N2C [Compound I-264, 4-(9-cyclopentyl-5,7,7-trimethyl-6-oxo-6,7,8,9-tetrahydro-5H-pyrimido[4,5-b][1,4]diazepin-2-ylamino)-N-(2-hydroxyethyl)-3-methoxybenzamide]
